Experiment [1] concerns the target T1, human HCN4 channel (Homo sapiens, UniProt Q9Y3Q4).
T1 construct: expressed in transfected cells; host or cells: CHO-K1
T1 sequence (Q9Y3Q4 1-1203): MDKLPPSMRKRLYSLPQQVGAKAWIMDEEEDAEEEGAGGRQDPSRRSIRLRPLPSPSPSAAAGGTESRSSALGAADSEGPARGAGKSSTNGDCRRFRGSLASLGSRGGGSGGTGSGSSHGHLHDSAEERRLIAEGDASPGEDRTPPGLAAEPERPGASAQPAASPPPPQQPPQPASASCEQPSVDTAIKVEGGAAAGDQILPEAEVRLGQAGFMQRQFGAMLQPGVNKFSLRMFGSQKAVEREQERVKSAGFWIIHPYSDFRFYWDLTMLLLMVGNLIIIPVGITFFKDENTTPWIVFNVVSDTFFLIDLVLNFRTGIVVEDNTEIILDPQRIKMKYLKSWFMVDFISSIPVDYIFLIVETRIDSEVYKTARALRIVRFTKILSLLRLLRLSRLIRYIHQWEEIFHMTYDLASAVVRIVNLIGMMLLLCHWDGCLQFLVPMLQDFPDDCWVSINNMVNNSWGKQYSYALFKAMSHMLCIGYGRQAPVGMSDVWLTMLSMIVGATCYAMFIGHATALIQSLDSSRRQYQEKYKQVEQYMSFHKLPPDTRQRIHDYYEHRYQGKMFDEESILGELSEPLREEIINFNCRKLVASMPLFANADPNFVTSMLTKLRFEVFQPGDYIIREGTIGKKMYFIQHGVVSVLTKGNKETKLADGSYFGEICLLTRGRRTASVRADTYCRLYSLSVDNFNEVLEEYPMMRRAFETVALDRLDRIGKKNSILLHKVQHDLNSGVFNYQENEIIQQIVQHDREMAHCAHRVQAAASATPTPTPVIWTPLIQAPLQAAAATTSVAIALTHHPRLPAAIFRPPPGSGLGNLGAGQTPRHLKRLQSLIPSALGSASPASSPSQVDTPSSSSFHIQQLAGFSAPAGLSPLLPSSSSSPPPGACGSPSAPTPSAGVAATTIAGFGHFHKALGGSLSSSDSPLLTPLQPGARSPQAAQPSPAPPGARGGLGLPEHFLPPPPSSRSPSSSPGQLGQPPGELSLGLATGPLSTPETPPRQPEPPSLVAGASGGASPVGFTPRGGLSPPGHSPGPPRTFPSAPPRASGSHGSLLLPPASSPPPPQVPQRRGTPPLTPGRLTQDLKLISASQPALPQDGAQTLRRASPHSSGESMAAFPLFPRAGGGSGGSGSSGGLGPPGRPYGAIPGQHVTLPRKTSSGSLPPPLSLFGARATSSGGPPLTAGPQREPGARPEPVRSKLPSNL
In words: MPSD FLIPR 384 hyperpolarization assay, HCN4 (CHO-K1 cells). The experiment is classed as cell-based. The following applies: 50 μM ZD7288. The procedure:
CHO-K1 cells stably expressing a human HCN4 channel were plated as described in Example 3 above. Using a FLIPR®^96 assay, control cells were incubated in 30 μl/well HBSS (Gibco catalog 14025-092 containing NaCl, 137.93; KCl, 5.33; KH2PO4, 0.44; NaHCO3, 4.17; Na2HPO4, 0.34; CaCl2, 1.26; MgCl2, 0.49; MgSO4, 0.41; D-Glucose 5.56). The HBSS was supplemented with MPSD (1 vial/0.5 L). The saline for test cells additionally included 30 μM of the channel inhibitor ZD7288 dissolved in <1.0% DMSO. After 15-30 minutes incubation, background fluorescence was recorded on FLIPR and the membrane hyperpolarization induced by the addition of 200 μl sodium/potassium diluent solution (140 Choline-Cl, 1.0 mM CaCl2, 1.0 mM CaCl2, 10 mM HEPES, 5.5 mM D-glucose, pH 7.3 with TRIS-OH), supplemented with MPSD (1 vial/0.5 L) was recorded on FLIPR.
The FLIPR®^384 well plate was prepared similarly to the FLIPR®^96 well plate except that the amounts of HBSS (optionally, HBSS was supplemented with about 25 to 50 mM of KCl to further enhance assay window) and the sodium/potassium diluent solution were adjusted to keep the dilution ratio of these solutions between about 1:10-1:30, respectively. Additionally, 50 μM ZD7288 was added to the saline containing test cells. […] In addition, less than about 0.02% false positives or false negatives were observed (covariance 11.03 and 12.05, data not shown).

Experiment [2] concerns the target T1, human HCN4 channel. In words: Dose response of blockade of hyperpolarization (MPSD FLIPR), HCN4. Type of experiment: cell-based. The procedure: HEK-293H cells stably expressing a human HCN1 channel were plated and incubated in HBSS essentially as described in Examples 3 and 5. CHO-K1 cells stably expressing a human HCN4 channel were plated and incubated in HBSS essentially as described in Example 6. Varying concentrations of ZD7288 were added to HBSS for each of the test wells to determine the dose response of cells expressing HCN1 or HCN4 channels. The percent inhibition of hyperpolarization was calculated for a single dose using the following equation:
The data were fit with a Hill equation as described by the ratio 1/(1+([test agent]/IC50)^k, where IC50 is the concentration of a test agent required to inhibit one-half of the maximum current and k is the Hill coefficient.
Similarly, ZD7288 IC50 values on HCN4 channel were determined in a set of two experiments. […] No statistical difference was found between the two experiments.

Molecules are shown by their SMILES. Read-outs that look alike come from different tables or passages of the source.

In the case of `CCN(c1ccccc1)c1cc(=NC)n(C)c(C)n1.Cl` [ZD7288], the “blockade of hyperpolarization of HCN4 channels” value in experiment [1] is “effectively blocked hyperpolarization”. Also, the IC50 is 9.07 µM in experiment [2] (CHO-K1, group 1, n=8, mean ± 2.31 μM, read-out: IC50 mean, group 1) and 9.06 µM in experiment [2] (CHO-K1, group 2, n=8, mean ± 2.61 μM, read-out: IC50 mean, group 2).

Values taken from US20090029366A1 (priority 2007, published 2009).
